The source of these data is publication PMC7263517 (bioRxiv, 2020).

pIC50: −log10 of the molar value. Where two headings read alike, the source gives them in different places.

For test [1], the target named is A/WSN/33 (H1N1) influenza virus FluPol (Influenza A virus, UniProt P03430). The test can be described thus: biochemical. In kind it is biochemical, influenza A/WSN/33 (H1N1) virus.
For the next test, the target named is FluPol (Influenza A virus, UniProt P03430). In kind it is biochemical, influenza A/WSN/33 (H1N1) virus.
The target of test [2] is SARS-CoV-2 nsp7/8/12 complex (Severe acute respiratory syndrome coronavirus 2, UniProt P0DTD1). Briefly: SARS-CoV-2 nsp7/8/12 in vitro activity assay. The test is classed as biochemical.
A further test has as its system influenza virus. As to conditions: read-out: EC90 influenza virus growth in cell culture; cited from earlier work.

Sequence of A/WSN/33 (H1N1) influenza virus FluPol (P03430 whole entry, looked up): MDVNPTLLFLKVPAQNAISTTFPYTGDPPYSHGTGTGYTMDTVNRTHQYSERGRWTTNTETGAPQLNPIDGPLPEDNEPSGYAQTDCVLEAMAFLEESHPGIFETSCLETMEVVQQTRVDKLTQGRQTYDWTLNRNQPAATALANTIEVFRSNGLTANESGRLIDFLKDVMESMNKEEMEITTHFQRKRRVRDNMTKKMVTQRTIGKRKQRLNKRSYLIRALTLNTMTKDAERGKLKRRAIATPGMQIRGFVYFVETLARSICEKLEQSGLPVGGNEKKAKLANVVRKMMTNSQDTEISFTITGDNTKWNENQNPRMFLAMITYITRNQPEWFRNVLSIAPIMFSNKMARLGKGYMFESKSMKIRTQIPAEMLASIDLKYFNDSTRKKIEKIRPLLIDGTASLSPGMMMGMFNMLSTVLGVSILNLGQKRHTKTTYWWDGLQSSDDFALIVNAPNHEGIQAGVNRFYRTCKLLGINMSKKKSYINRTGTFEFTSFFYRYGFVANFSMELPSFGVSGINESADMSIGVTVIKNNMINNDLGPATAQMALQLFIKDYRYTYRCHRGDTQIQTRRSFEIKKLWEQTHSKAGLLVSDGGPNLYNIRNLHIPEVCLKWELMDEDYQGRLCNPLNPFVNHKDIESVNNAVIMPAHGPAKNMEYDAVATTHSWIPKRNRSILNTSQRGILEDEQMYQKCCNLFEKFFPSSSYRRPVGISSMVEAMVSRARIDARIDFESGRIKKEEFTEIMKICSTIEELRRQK
Sequence of FluPol (P03430 whole entry, looked up): as above

The term pIC50 denotes the negative decadic logarithm of the IC50, by convention in mol/L. On to `C[n+]1ccc(C(=O)NCc2ccccc2)cc1` [FAV00A, N-methyl-4-benzylcarbamidopyridinium iodide, reference compound], for which the “FOLD CHANGE IC50” value in test [1] was 1. In addition, the negative logarithm of the IC50 (pIC50) in test [1] was 1.33; in test [2] it was 1.39. Besides, the “inhibition of FluPol activity by cellular extract” value on FluPol is reported as “strong, concentration-dependent inhibition”.
Compound `NC(=O)c1nc(F)cn([C@@H]2O[C@H](COP(=O)(O)OP(=O)(O)OP(=O)(O)O)[C@@H](O)[C@H]2O)c1=O` [T-705 triphosphate, 6-fluoro-3,4-dihydro-4-[5-O-(hydroxy{[hydroxy(phosphonooxy)phosphinyl]oxy}phosphinyl)-β-d-ribofuranosyl]-3-oxo-2-pyrazinecarboxamide, reference compound] gave a negative-log IC50 (pIC50) in test [1] of 4.96. The “IC50 SARS-CoV-2 nsp7/8/12 RNA synthesis activity” value in test [2] (in vitro, 30 mins, VR17-04 value estimated from the dose-response curve) is reported as “non-inhibitory”.
For the compound `C[n+]1ccc(C(=O)NCc2ccccc2O)cc1` [VR16-01, 4-{[(2-hydroxyphenyl)methyl]carbamoyl}-1-methylpyridin-1-ium], in test [1], the “FOLD CHANGE IC50” value was 0.6. Besides, in test [1] (read-out: FLUPOL IC50), the pIC50 is 1.11.
On the same counts, the results for `O=C(NCc1ccccc1O)c1ccncc1` [VR18-01, N-[(2-hydrophenyl)methyl]pyridine-4-carboxamide] are 1.4 and 1.47.
On the same counts, the results for `O=C(NCc1cccc(O)c1)c1ccncc1` [VR18-02, N-[(3-hydrophenyl)methyl]pyridine-4-carboxamide] are 0.5 and 1.02.
On the same counts, the results for `O=C(NCc1ccc(O)cc1)c1ccncc1` [VR18-03, N-[(4-hydrophenyl)methyl]pyridine-4-carboxamide] are 0.6 and 1.13.
Turning to `O=C(NCc1ccccc1)c1cc[nH]c(=O)c1` [VR18-04, N-benzyl-2-oxo-1,2-dihydropyridine-4-carboxamide], in test [1], the “FOLD CHANGE IC50” value is reported as 1.3 and the negative-log IC50 (pIC50) is 1.45.
One may read the EC90 as the concentration needed for an effect of 90%. In the case of `C[n+]1ccc(C(=O)NCc2ccccc2)cc1` [enisamium, 4-(benzylcarbamoyl)-1-methylpyridinium], the EC90 in the test with influenza virus was 0.157 to 0.439 mM.
